“Also recorded” adds a separate entry of the source. Each block holds one molecule with its values, some of them ahead of it.
Key:
Granzyme B [1] = molecular target: T1, Granzyme B (Homo sapiens, UniProt P10144); test: continuous colorimetric Granzyme B inhibition assay with substrate Ac-IEPD-pNA; assay type: biochemical; conditions: substrate Ac-IEPD-pNA 20 μM, 37° C., pNA release at 405 nm
Procedure: Small molecule libraries (ZINC—Irwin J J and Shoichet B K, 2005. J. Chem Inf Model 4591:177-182; NCI—Voigt, J. H. et al. J. Chem. Inf Comput. Sci. 2001, 41, 702-712) were screened in silico for candidate Granzyme B inhibitory compounds. Several candidate small molecule inhibitors were identified and subjected to an in vitro Granzyme B inhibition assay. More specifically, a continuous colormetric assay for Granzyme B activity was carried out with the substrate Ac-IEPD-pNA. Briefly, 8 ug/ml Granzyme B, 20 μM substrate, and increasing concentrations of the inhibitor of interest was incubated in a final reaction volume of 50 ul. The reaction buffer consisted of 50 mM HEPES pH 7.5, 10% sucrose, 0.1% CHAPS and 5 mM DTT and reactions were carried out at 37° C. pNA release and Granzyme B inhibition was monitored at 405 nm on a Tecan Safire microplate reader.
As detailed herein and as detailed in Tables A and B herein, candidate inhibitors, and IC50 concentration obtained from the inhibition assay are set out below.

[2] = molecular target: T2, purified human Granzyme B (Homo sapiens, UniProt P10144); test: proteoglycan cleavage assay (recombinant decorin, biglycan, betaglycan incubated with Granzyme B +/- inhibitor, SDS-PAGE); assay type: biochemical; conditions: for Granzyme B cleavage of decorin: 24 h, 30 ul, Coomassie Blue stain
T2 construct: purchased Axxora, San Diego, Calif
T2 sequence (P10144 21-247): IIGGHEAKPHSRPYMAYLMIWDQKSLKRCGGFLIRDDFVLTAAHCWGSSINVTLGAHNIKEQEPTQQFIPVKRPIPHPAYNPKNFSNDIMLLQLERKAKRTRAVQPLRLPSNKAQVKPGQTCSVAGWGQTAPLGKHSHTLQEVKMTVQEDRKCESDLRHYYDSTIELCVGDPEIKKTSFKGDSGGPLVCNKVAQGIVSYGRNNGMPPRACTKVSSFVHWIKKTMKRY
Procedure: For ECM cleavage assays, Granzyme B and/or the inhibitor 3,4-dichloroisocoumarin (DCI), were incubated for 4 and 24 hours at room temperature, with decorin, biglycan or soluble betaglycan and visualized by Ponceau staining. Cleavage fragments were subjected to Edman degradation for cleavage site identification.
Proteoglycan cleavage assays. The recombinant human PGs, decorin (0.5 μg, Abnova, Walnut, Calif.), biglycan and betaglycan (1.5-5 ug, R&D Systems, Minneapolis, Minn.) were incubated at room temperature for 24 h with 25-500 nM purified human Granzyme B (Axxora, San Diego, Calif.), in 50 mM Tris buffer, pH 7.4. For inhibitor studies, Granzyme B was incubated in the presence or absence of 200 μM of the serine protease inhibitor 3,4-dichloroisocoumarin (DCI; Santa Cruz Biotechnology Inc, Santa Cruz, Calif.) or inhibitor solvent control, dimethyl sulfoxide (DMSO; Sigma-Aldrich, St Louis, Mo.) for 4 h or 24 h. After incubation, proteins were denatured, separated on a 10% SDS-polyacrylamide gel and transferred to a nitrocellulose membrane. Ponceau stain (Fisher Scientific, Waltham, Mass.) was used to detect cleavage fragments.
Samples were run on a 10% gel, imaged with Ponceau stain and scanned.
In this Example, incubations were performed at RT for 24 h in a total reaction volume of 30 ul. Samples were run on a 10% gel and imaged by Coomassic Blue stain. With reference to FIG. 17, the asterisk=full length protein.
Samples were run on a 10% gel, imaged with Ponceau stain and scanned. […] DMSO vehicle control was not included due to redundancy. Asterisk=full length protein; Arrow=cleavage fragments. Obstruction in Granzyme B/Betaglycan lane affecting first 2 cleavage fragments.

Granzyme B [3] = molecular target: T1, Granzyme B; test: TGF-β release assay from proteoglycan/TGF-β complexes (Western blot of supernatants); assay type: biochemical; conditions: for release of TGF-β from betaglycan/TGF-β complexes by Granzyme B: 20 ug/ml betaglycan, 10 ng TGF-β, 24 h at RT
Procedure: Cytokine release was assessed in supernatants using Western blotting. TGF-β release assays were carried out using a method similar to that previously described for the MMPs (Imai et al. 1997). Briefly, decorin, biglycan and betaglycan (15 μg/mL) were coated onto 48 well tissue culture plastic plates and allowed to incubate overnight at 4° C. in PBS, pH 7.4. After blocking with 1% bovine serum albumin, 20 ng of active TGF-β1 per well (Peprotech Inc, Rocky Hill, N.J.) was added in DPBS containing calcium and magnesium (#14040, Invitrogen, Carlsbad, Calif.) for 5 h at RT. Granzyme B, with or without DCI, was then added to the wells. After 24 h, supernatants were removed, denatured, and run on a 15% SDS-PAGE gel. Once transferred to a nitrocellulose membrane and blocked with 10% skim milk, the membrane was probed using a rat anti-human TGF-β1 antibody (1:200, BD Biosciences, Franklin Lakes, N.J.) and IRDye® 800 conjugated affinity purified anti-Rat IgG (1:3000, Rockland Inc, Gilbertsville, Pa.). Bands were imaged using the Odyssey Infrared Imaging System (LI-COR Biotechnology, Lincoln, Nebr.). In this Example, 20 ug/ml betaglycan was coated onto 48 well plates and incubated with 10 ng of TGF-β. Excess TGF-β was washed off the plate and betaglycan/TGF-β complexes were incubated with Granzyme B+/− inhibitors for 24 h at RT. Supernatants (containing released TGF-β) were collected and Western blotted for TGF-β. There is little non-specific dissociation of TGF-β into supernatants in the absence of Granzyme B (2; see FIG. 16). TGF-β is released by Granzyme B after 24 h of incubation (4; see FIG. 16).

[4] = test system: human coronary artery smooth muscle cells (HCASMC); test: Human coronary artery smooth muscle cell TGF-β bioavailability assay (SMAD-3 / Erk phosphorylation); assay type: cell-based; conditions: supernatants of betaglycan release assay (Granzyme B +/- DCI) on cells for 16 h
Procedure: To determine if the TGF-β released by Granzyme B was active, supernatants from the above release assay were incubated on human coronary artery smooth muscle cells (HCASMC) and SMAD/Erk activation was examined by Western blotting. For bioavailability assays, HCASMCs (Clonetics/Lonza, Walkersville, Md.) at passage 3-5 were seeded in 6 well plates in smooth muscle cell growth media (SmGM, Clonetics) +5% fetal bovine serum (FBS, Invitrogen) and grown to confluence. At this time, cells were quiesced by serum removal for 24 h, after which time 150 μl of release assay supernatants (as described above) or a 10 ng TGF-β positive control were added to the cells for 16 h. Cell lysates were assessed by SDS-PAGE/Western blotting for phosphorylated-Erk 1/2 (p-Erk1/2; 1:1000, Cell Signaling Technology, Danvers, Mass.), total Erk 1/2 (t-Erk1/2; 1:1000, Cell Signaling Technology), phosphorylated-SMAD3 (p-SMAD3; 1:2000, Epitomics, Burlingame, Calif.), total SMAD3 (t-SMAD3; 1:500, BD Biosciences) and the loading controls β-actin (1:5000, Sigma-Aldrich) or β-tubulin (1:3000, Millipore, Billerica, Mass.). Secondary IRDye® 800 conjugated antibodies (1:3000, Rockland Inc) were utilized and imaged with the Odyssey Infrared Imaging System (LI-COR Biotechnology). […]

Granzyme B [5] = molecular target: T1, Granzyme B; test: fibronectin cleavage by Granzyme B +/- inhibitor; assay type: biochemical; conditions: inhibitor at 3.12 nM
Procedure: As shown in FIGS. 21A and B herein, incubations as described herein were performed with fibronectin (FN) and Granzyme B, both in the absence of inhibitor Willoughby 20 and in the presence of inhibitor Willoughby 20. Compound Willoughby 20 inhibits Granzyme B cleavage of FN at 3.12 nM.

Granzyme B [6] = molecular target: T1, Granzyme B; test: cleavage of endogenous HCASMC-derived ECM (fibronectin, decorin Western blot) by 100 nM Granzyme B +/- inhibitor; assay type: biochemical; conditions: inhibitor at 150 μM
Procedure: More specifically, as it relates to FIG. 18, to synthesize endogenous ECM, human coronary artery smooth muscle cells were seeded in 6 well plates and incubated at confluency for 7 days in serum starvation media (SMGM+0.2% FBS). Cells were removed from the plates by incubation with 0.25M Ammonium Hydroxide for 20 min. This treatment removes cells while leaving the surrounding extracellular matrix intact. Subsequently, 100 nM Granzyme B and the inhibitor of interest were incubated on the endogenous ECM for 24 h. Supernatants from the plates (containing cleavage fragments) were run on an SDS-PAGE gel and Western blotted for fibronectin or decorin. DMSO solvent control was not included due to redundancy. Asterisk=full length protein; Arrow=cleavage fragments, star denotes full length. […] Cells were removed from the plates by incubation with 0.25M Ammonium Hydroxide for 20 min. This treatment removes cells while leaving the surrounding extracellular matrix intact. Subsequently, 100 nM Granzyme B and the inhibitor of interest were incubated on the endogenous ECM for 24 h. Supernatants from the plates (containing cleavage fragments) were run on to an SDS-PAGE gel and Western blotted for fibronectin or decorin. DMSO solvent control was not included due to redundancy. Asterisk=full length protein; Arrow=cleavage fragments, star denotes full length.

T1 sequence (P10144 21-247): as above

SMILES: O=C(Nc1ccc(Cl)cc1Cl)/C(O)=C\C(=O)[C@@H]1CCOC1=O (stereo in doubt) [ZINC05605947]
IC50 (Granzyme B [1]): ~320 µM

SMILES: O=c1oc(Cl)c(Cl)c2ccccc12 [DCI, 3,4-dichloroisocoumarin]
Granzyme B-mediated cleavage of decorin, biglycan and betaglycan ([2]; 200 μM DCI, 4 h and 24 h, room temperature, Ponceau stain): effectively inhibited | release of TGF-β from betaglycan/TGF-β complexes by Granzyme B (Granzyme B [3]): partially inhibited | release of TGF-β from decorin, biglycan and betaglycan by Granzyme B (Granzyme B [3]; 24 h incubation, Western blot of supernatants): not released; also recorded: inhibited; also recorded: no release evident | TGF-β signaling (SMAD-3 and Erk 1/2 phosphorylation) in HCASMC [4]: limited TGF-β signaling

SMILES: CC[C@H](C)[C@H](NC(=O)Cc1csc2ccccc12)C(=O)N[C@H]1CCc2cccc3c2N(C1=O)[C@H](C(=O)NCc1c[nH]nn1)C3 [Willoughby 20, Azepino[3,2,1-hi]indole-2-carboxamide, 5-[[(2S,3S)-2-[(2-benzo[b]thien-3-ylacetyl)amino]-3-methyl-1-oxopentyl]amino]-1,2,4,5,6,7-hexahydro-4-oxo-N-(1H-1,2,3-triazol-5-ylmethyl)-, (2S,5S)-]
IC50 (Granzyme B [1]): ~3.1 µM | Granzyme B cleavage of decorin ([2]; RT): Inhibits | Granzyme B cleavage of decorin ([2]; RT, listed as compound 20): prevented | Granzyme B cleavage of betaglycan ([2]; room temperature, 24 hours, 30 μl, Ponceau stain): inhibits | release of TGF-β from betaglycan/TGF-β complexes by Granzyme B (Granzyme B [3]): inhibited | Granzyme B cleavage of fibronectin (FN) (Granzyme B [5]): inhibits

SMILES: O=C1CCC(=O)/C(=C(/O)CCC(=O)Nc2cccc(Cl)c2)C1 [ZINC05315460]
IC50 (Granzyme B [1]): ~100 µM

SMILES: CC(=O)CCC(=O)CC(=O)CCC(=O)Nc1cc(Cl)ccc1Cl [ZINC05316859]
IC50 (Granzyme B [1]): ~250 µM

SMILES: COC(=O)CC/C(O)=C(/C(=O)CCC(=O)Nc1ccc(Cl)cc1Cl)C(=O)OC [ZINC05317216]
IC50 (Granzyme B [1]): ~50 µM

Now from value to molecule:

IC50 (Granzyme B [1]): ~195 µM
SMILES: Cc1ccc(NC(=O)/C(O)=C(/C(=O)c2ccc3ccccc3c2)[C@H]2OC(=O)c3ccccc32)c(C)c1 (stereo in doubt) [ZINC05316154]

IC50 (Granzyme B [1]): ~255 µM
SMILES: CCOc1ccccc1NC(=O)/C(O)=C(/C(=O)c1ccc2ccccc2c1)[C@@H]1OC(=O)c2ccccc21 [ZINC05398428]

IC50 (Granzyme B [1]): ~270 µM
SMILES: Cc1ccc(NC(=O)/C(O)=C(/C(=O)c2ccc3ccccc3c2)[C@@H]2OC(=O)c3ccccc32)cc1C [ZINC05723503]

IC50 (Granzyme B [1]): ~250 µM
SMILES: CC(=O)c1ccccc1NC(=O)/C(O)=C(/C(=O)c1ccccc1-c1ccccc1)[C@@H]1OC(=O)c2ccccc21 [ZINC05723646]

IC50 (Granzyme B [1]): ~25 µM | Granzyme B cleavage of betaglycan ([2]; inhibitor at 100 μM, RT, 4 h): does not inhibit | decorin cleavage by Granzyme B (Granzyme B [6]): effective
SMILES: CC(=O)c1ccc(NC(=O)/C(O)=C(\C(=O)/C=C\c2ccccc2)[C@@H]2OC(=O)c3ccccc32)cc1 [ZINC05723764]

IC50 (Granzyme B [1]): ~40 µM | Granzyme B cleavage of betaglycan ([2]; inhibitor at 50 μM, RT, 4 h): partially inhibits | Granzyme B cleavage of betaglycan ([2]; inhibitor at 100 μM, RT, 4 h): completely
SMILES: Cc1ccc(NC(=O)/C(O)=C(/C(=O)/C=C/c2ccccc2)C2OC(=O)c3ccccc32)c(C)c1 (stereo not drawn) [ZINC05723787]

Source: patent US20140056964A1, “GRANZYME B INHIBITOR COMPOSITIONS, METHODS AND USES FOR PROMOTING WOUND HEALING” (THE UNIVERSITY OF BRITISH COLUMBIA, priority 2010, published 2014)
